One experiment concerns P. falciparum 3D7-TPK+. The experiment is described as follows: Growth inhibition of PfTPK overexpressing parasites (3D7-TPK+). In kind it is cell-based. The following applies: Plasmodium falciparum, 3D7, read-out: PfTPK IC50. How it is done:
P. falciparum cultures were treated as described in method I. For target specification toward PfTPK and PfDXPS, compounds were tested in comparison against overexpressing cell lines and the respective MOCK line containing only the transfected vector backbone. Parasite viability/proliferation was determined. Analysis of the IC50 values and interpretation of the curves was performed, as described in Section 4.1.2.44.
eq 1: Fluorescence data normalization [drawing 2] where y is the fluorescence signal in each well, yminimum is the background fluorescence, and ymaximum is the highest measured fluorescence signal in the untreated wells. Drug concentrations (in μM) were transformed to the log(10)of the values. Means of each independent experiment were plotted as individual values, and the SD of the mean from the means shown as error bars. […] In case of transgenic cell lines, the built-in comparison Akaike’s information criteria (AICc) method was applied to the Log IC50s of the different cell lines. The test calculates a percentage probability of the simpler model “Log IC50 is the same for datasets” being correct. The test for homoscedasticity was performed to confirm if no weighting of values was appropriate.

In a further experiment the test system is P. falciparum 3D7-DXPS+. The experiment can be described thus: Growth inhibition of PfDXPS overexpressing parasites (3D7-DXPS+). Particulars: Plasmodium falciparum, 3D7, read-out: PfDXPS IC50. In kind it is cell-based. An excerpt: The open reading frame (ORF) encoding 1-deoxy-D-xylulose-5-phosphate synthase (PfDXPS; PF3D7_1337200) was amplified from genomic DNA isolated from unsynchronized P. falciparum 3D7 cultures using the Platinum PCR SuperMix High Fidelity (Invitrogen). Forward and reverse primers contained restriction sites for KpnI and AvrII in sense and antisense orientation, respectively (oligonucleotides pfDXPS-Kpn1-S: […]; pfDXPSmyc-Avr2-AS: […] ). PCR products and the transfection vector pARL1a-hDHFR PfARG-GFP were digested with KpnI and AvrII, purified (Gel extraction Kit and PCR purification kit; Qiagen), and cloned into the transfection vector yielding the construct for overexpression pARL-DXS-strep. XL 10-Gold E. coli ultracompetent cells (Agilent Technologies) were transformed with the generated construct to amplify the plasmid and colonies checked using restriction analysis and sequencing of the plasmid. Bacterial clones carrying the overexpression construct and the empty pARL1a vector (MOCK plasmid) were amplified in overnight cultures, isolated (Plasmid Maxi Kit; QIAGEN), and subsequently used to transfect P. falciparum 3D7 ring-stage parasites, as already described.[59] Briefly, 120 μg of plasmid DNA was centrifuged and air-dried, and the pellet was resuspended in TE buffer and cytomix reagent and mixed with the P. falciparum culture. Parasites were transfected using electroporation and selected with WR 99210. The generation and characterization of the PfTPK overexpression cell line has been reported before.[60]
P. falciparum cultures were treated as described in method I. For target specification toward PfTPK and PfDXPS, compounds were tested in comparison against overexpressing cell lines and the respective MOCK line containing only the transfected vector backbone. Parasite viability/proliferation was determined.

Another experiment relates to Hep G2 cells. The experiment can be described thus: Hep G2 viability assay (counter screen). In kind it is cell-based, human. Particulars: cytotoxicity, 48 h.

On to `Cc1nc(N)sc1-c1csc(Nc2ccc(C(F)(F)F)cc2)n1` [compound 1], for which the IC50 with P. falciparum 3D7-TPK+ is 1760 nM; with P. falciparum 3D7-DXPS+ it was 2080 nM; in the experiment with Hep G2 cells (Homo sapiens, HepG2, 48 h) it was 54000 ± 2400 nM; in the experiment with Hep G2 cells, more than 50000 nM.

Values taken from PMC10928712, “High Target Homology Does Not Guarantee Inhibition: Aminothiazoles Emerge as Inhibitors of Plasmodium falciparum” (ACS Infectious Diseases, 2024).
